Test results: ChEMBL document CHEMBL1201862, “PubChem BioAssay data set” (2004)
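Values below derive from 48-hour exposures of cells grown in 96-well plates, with endpoints linearly interpolated between the two concentrations bracketing the appropriate inhibition level. GI50: concentration for 50% inhibition of growth.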 Calls of active or inactive are those of the source. Cut-off read from the data, not from the text of the source: active = GI50 up to about 1.1 µM and inactive = higher.

Legend:
Assay in all cases: inhibition of tumour cell growth, NCI panel, 48 h
A498 = test system: A498
COLO 205 = test system: COLO 205
EKVX = test system: EKVX
HCT-116 = test system: HCT-116
HL-60 = test system: HL-60
HOP-92 = test system: HOP-92
HT-29 = test system: HT-29
MCF7 = test system: MCF7
MDA-MB-231 = test system: MDA-MB-231
MDA-N = test system: MDA-N
MOLT-4 = test system: MOLT-4
Malme-3M = test system: Malme-3M
NCI-H460 = test system: NCI-H460
OVCAR-4 = test system: OVCAR-4
RXF 393 = test system: RXF 393
SK-MEL-28 = test system: SK-MEL-28
SK-MEL-2 = test system: SK-MEL-2
SK-OV-3 = test system: SK-OV-3
SW-620 = test system: SW-620
UACC-257 = test system: UACC-257

## NC12CC3CC4C1CC1CC2C(C3)C4(N)C1
A498
  GI50: > 100 µM (inactive)
COLO 205
  GI50: > 100 µM (inactive)
EKVX
  GI50: > 100 µM (inactive)
HCT-116
  GI50: > 100 µM (inactive)
HL-60
  GI50: > 100 µM (inactive)
HOP-92
  GI50: > 100 µM (inactive)
HT-29
  GI50: > 100 µM (inactive)
MCF7
  GI50: > 100 µM (inactive)
MDA-MB-231
  GI50: > 100 µM (inactive)
MDA-N
  GI50: > 100 µM (inactive)
MOLT-4
  GI50: > 100 µM (inactive)
Malme-3M
  GI50: > 100 µM (inactive)
NCI-H460
  GI50: > 100 µM (inactive)
OVCAR-4
  GI50: > 100 µM (inactive)
RXF 393
  GI50: > 100 µM (inactive)
SK-MEL-28
  GI50: > 100 µM (inactive)
SK-MEL-2
  GI50: > 100 µM (inactive)
SK-OV-3
  GI50: > 100 µM (inactive)
SW-620
  GI50: > 100 µM (inactive)
UACC-257
  GI50: > 100 µM (inactive)

## O=C1C=CC(=O)C1(Br)Br
A498
  GI50: 13.2 µM (inactive)
COLO 205
  GI50: 10 µM (inactive)
EKVX
  GI50: 14.5 µM (inactive)
HCT-116
  GI50: 7.69 µM (inactive)
HL-60
  GI50: 11.4 µM (inactive)
HOP-92
  GI50: 16.3 µM (inactive)
HT-29
  GI50: 7.38 µM (inactive)
MCF7
  GI50: 11 µM (inactive)
MDA-MB-231
  GI50: 8.22 µM (inactive)
MDA-N
  GI50: 11.5 µM (inactive)
MOLT-4
  GI50: 14.7 µM (inactive)
Malme-3M
  GI50: 20 µM (inactive)
NCI-H460
  GI50: 19.3 µM (inactive)
OVCAR-4
  GI50: 17.6 µM (inactive)
RXF 393
  GI50: 6.37 µM (inactive)
SK-MEL-28
  GI50: 7.24 µM (inactive)
SK-MEL-2
  GI50: 12.5 µM (inactive)
SK-OV-3
  GI50: 21 µM (inactive)
SW-620
  GI50: 10.1 µM (inactive)
UACC-257
  GI50: 16.1 µM (inactive)

## Cc1cc(O)c2c(=O)c3ccccc3[nH]c2c1
A498
  GI50: 32.8 µM (inactive)
COLO 205
  GI50: 13.2 µM (inactive)
EKVX
  GI50: 41.1 µM (inactive)
HCT-116
  GI50: 20.3 µM (inactive)
HL-60
  GI50: 28.3 µM (inactive)
HOP-92
  GI50: 25.9 µM (inactive)
HT-29
  GI50: 8.63 µM (inactive)
MCF7
  GI50: 0.133 µM (active)
MDA-MB-231
  GI50: 32.4 µM (inactive)
MDA-N
  GI50: 42.9 µM (inactive)
MOLT-4
  GI50: 36.3 µM (inactive)
Malme-3M
  GI50: 32.7 µM (inactive)
NCI-H460
  GI50: 14.9 µM (inactive)
OVCAR-4
  GI50: 15.1 µM (inactive)
RXF 393
  GI50: 27 µM (inactive)
SK-MEL-28
  GI50: 42.7 µM (inactive)
SK-MEL-2
  GI50: 81.7 µM (inactive)
SK-OV-3
  GI50: 52.8 µM (inactive)
SW-620
  GI50: 41.6 µM (inactive)
UACC-257
  GI50: 20.1 µM (inactive)

## O=P(O)(O)CN1CCNCCN(CP(=O)(O)O)CCNCC1
A498
  GI50: 8.36 µM (inactive)
COLO 205
  GI50: 5.13 µM (inactive)
EKVX
  GI50: > 95.9 µM (inactive)
HCT-116
  GI50: 4.39 µM (inactive)
HL-60
  GI50: 2.79 µM (inactive)
HOP-92
  GI50: 3.78 µM (inactive)
HT-29
  GI50: 3.95 µM (inactive)
MCF7
  GI50: 6.97 µM (inactive)
MDA-MB-231
  GI50: > 100 µM (inactive)
MDA-N
  GI50: 13.5 µM (inactive)
MOLT-4
  GI50: 4.66 µM (inactive)
Malme-3M
  GI50: 20.9 µM (inactive)
NCI-H460
  GI50: 3.24 µM (inactive)
OVCAR-4
  GI50: > 71.3 µM (inactive)
RXF 393
  GI50: > 100 µM (inactive)
SK-MEL-28
  GI50: > 100 µM (inactive)
SK-MEL-2
  GI50: > 100 µM (inactive)
SK-OV-3
  GI50: 8.87 µM (inactive)
SW-620
  GI50: 4.74 µM (inactive)
UACC-257
  GI50: 41.8 µM (inactive)
